# According to US10702568B2, “Compositions containing silymarin and sulfoalkyl ether cyclodextrin and methods of using the same” (UNIVERSITY OF KANSAS, priority 2015, dated 2020):
# Legend:
# [1] = Silymarin solubility in water, CAPTISOL® solution and γ-cyclodextrin solution (Example 2, HPLC); format: physicochemical; conditions: for solubility: water, thermodynamic from solid, Solubility (mg/ml) of components of silymarin
# Method: The solutions were centrifuged for 10 min at 13K rpm. An aliquot of the supernatant was diluted 1:5 for Water, 1:25 for γ-Cyclodextrin and 1:100 for both 0.20 M CAPTISOL® and 0.20M HP-B-Cyclodextrin using MeOH as the diluent. The standard reference was prepared by dissolving silymarin in 10 mg/mL of DMSO and then diluted to 0.50 mg/mL using MeOH.
# The change of the saturated solubility of the various components of silymarin in each of the four types of samples can be seen in FIG. 4.
# The data shown in Table 6 is plotted in FIGS. 5 and 6. The change of the solubility of the various components of silymarin in each of the three samples can be seen in FIG. 5. The total mutual saturated solubility of all flavonolignan components can be seen in FIG. 6. […] The various components of silymarin also have increased solubility in the CAPTISOL® (0.2M) sample.
# [2] = Solubility of silymarin components in water (Example 10, HPLC); format: physicochemical; conditions: for solubility: water
# Method: (§1) Silymarin components including taxifolin, silydianin, silychristin, silybin A, silybin B, isosilybin A, and isosilybin B were tested for their solubility in water and also for their Log D value. The silymarin extract was obtained from Indena® (Indena Code: 9065110). The HPLC system consisted of Waters system equipped with performance PLUS inline degasser along dual λ absorbance detector set at 288 nm. The chromatographic separation of silymarin constituents was achieved on a Symmetry Shield RP18 column (150×4.6 mm, 5 μm); which was maintained at ambient room temperature conditions. The binary mobile phase system consisted of reservoir A (methanol: 10 mM ammonium acetate pH 5 [65:35 v/v]) and reservoir B (10 mM ammonium acetate, pH 5) were run as per gradient program (0-1.9 min: 25% A and 75% B; 2.0-14.9 min: 80% A and 20% B and 15-37.9 min: 80% A and 20% B and 38-40 min: 25% A and 75% B). The flow rate was 1 mL/min throughout the analytical run.
# [3] = Pharmacokinetic study in rat; format: in vivo; conditions: in vivo; for AUC(0-t): AUC(0-2 h) (ng · h/mL)
# Method: The Silymarin-CAPTISOL® complex was administered to rat to test its pharmacokinetic properties.
# On arrival rats were housed individually in cages at animal care facility in a temperature and humidity controlled room with a 12 h:12 h (light:dark) cycles. The rats were provided with free access to food and water for one week before using for experimental purpose. The 12 rats were equally divided into three groups—Group I: silymarin-CAPTISOL® complex with a CAPTISOL® concentration of 100 mM for oral administration; Group II: silymarin suspension (Control); and Group III: silymarin complex with a CAPTISOL® concentration of 100 mM for intravenous administration. The animals were fasted overnight with free access to water. On the day of experiment, the rat was removed from animal care facility and brought to the procedure lab. The animal was weighed and appropriate dosing volume was determined. For oral administration, rat's head was held in place by gently extending the head back and supporting the lower body. The gavage tube was placed in the mouth and advanced along the lower palate till the esophagus, and the silymarin was administered through the tube. For intravenous administration, the silymarin-CAPTISOL® complex was administered by slow bolus intravenous injection into the tail vein. Approximately 200 μL blood was drawn into heparin coated tubes at pre dose, 0.15, 0.5, 1, 2, 4, 8, 10 and 24 h for oral group II and for intravenous group III. The sampling time points were predose, 0.12, 0.25, 0.5, 1, 2, 4, 8 and 24 h through the jugular vein catheter. Plasma was harvested by centrifuging the blood at 4000 RPM for 5 min and stored frozen at −80±10° C. until analysis.
# Stored plasma was thawed just before performing the silymarin components analysis. 200 μL of acetonitrile containing 0.1% of ammonia was added to 50 μL of plasma, and this mixture was vortexed for 5 min and centrifuged at 4° C. for 5 min at 10,000 RPM. After centrifugation, the supernatant was separated and injected into HPLC for analysis of silymarin constituents taxifolin, silydianin, silychristin, silybin A, silybin B, isosilybin A and isosilybin B.
# The plasma concentration-time curves of silybin A, silybin B, isosilybin A, and isosilybin B in the Silymarin-CAPTISOL® sample of Group I and the control sample (silymarin suspension) are respectively shown in FIGS. 20A to 20D.
# [4] = Log D of silymarin components (octanol/buffer, HPLC); format: physicochemical; conditions: pH 7.4
# Method: as §1
# To determine the Log D of silymarin components, the silymarin extract (2 mg) was dissolved in 100% DMSO and then used for the experiment. Different buffers between pH ranges of 1.0 to 12 were prepared by using universal buffer stock containing 25 mM hydrochloric acid, 25 mM citric acid, 25 mM phosphoric acid, 30 mM boric acid and 20 mM sodium chloride. About 45 mL of universal buffer was titrated with Sodium hydroxide (5M) to obtain desired pH. A 10 μL of silymarin stock solution was spiked into Eppendorf tube containing 500 μL each of a buffer and presaturated octanol. This mixture was vortexed for 5 minutes and kept for shaking at room temperature. After 16 h, the mixture was centrifuged at 10,000 RPM for 30 minutes. After centrifugation buffer and octanol phases were separated, both phases were diluted with acetonitrile (1:1) and subject to HPLC analysis for quantitation of individual components of silymarin. The Log D values of each compound at a pH was determined by Log D (pH)=Log [Organic (peak area)/Aqueous (peak area)].
# [5] = Silymarin saturated solubility with CAPTISOL® (Example 1, HPLC); conditions: for solubility: 25 °C, thermodynamic from solid, Solubility (mg/ml) of flavonolignan components of silymarin, saturated with excess silymarin
# Method: CAPTISOL® was dissolved in water to form four solutions with a CAPTISOL® concentration of 0.05 mol/L, 0.1 mol/L, 0.2 mol/L, and 0.3 mol/L respectively. 12 mg of silymarin powder (Sigma Aldrich) was added to 1 mL of each of the four CAPTISOL® solutions on Day 1, another 12 mg Silymarin powder was added on Day 3, and 19-22 mg Silymarin powder was added on Day 7 to ensure that silymarin reached its maximum solubility in each solution. The solutions were stirred in a water bath at 25° C. The solutions were then centrifuged prior to sampling. The supernatant was diluted in MeOH in preparation for HPLC assay.
# A reference standard was prepared by mixing silymarin with methanol to provide a methanol solution with a silymarin concentration of 0.1 mg/ml.
# HPLC was used to measure the relative concentrations of the different components of silymarin in each sample solution following the method described in Kuki et al., (2012) Chromatogram 75:175-180. The relative concentration of each component of silymarin was measured by comparing the normalized peak area units with that of the standard reference measured by the UV data at 288 nm and assuming equivalent extinction coefficients for all components.
# The relative molar amounts of the ten flavonolignan components of silymarin were calculated by dividing the normalized peak area of each component in a sample by the total normalized peak area of the sample.
# The concentration of each flavonolignan component of silymarin was calculated from the peak areas in Tables 1a and 1b and the total concentration of silymarin (0.1 mg/ml) in the reference sample, assuming constant extinction coefficients for each component.
# [6] = CAPTISOL® (0.2M) in water, saturated
# [7] = MeOH standard (0.5 mg/ml), reference
# [8] = γ-cyclodextrin (0.15M) (Cavamax) in water, saturated
# [9] = γ-cyclodextrin (0.15M), saturated
# [10] = 0.05 M CAPTISOL in water, aqueous with cosolvent or surfactant or cyclodextrin, CAPTISOL® (0.05M) in water
# [11] = 0.1 M CAPTISOL in water, aqueous with cosolvent or surfactant or cyclodextrin, CAPTISOL® (0.1M) in water
# [12] = 0.2 M CAPTISOL in water, aqueous with cosolvent or surfactant or cyclodextrin, CAPTISOL® (0.2M) in water
# [13] = 0.3 M CAPTISOL in water, aqueous with cosolvent or surfactant or cyclodextrin, CAPTISOL® (0.3M) in water
# [14] = CAPTISOL® (0.05M), saturated solubility
# [15] = CAPTISOL® (0.1M), saturated solubility
# [16] = CAPTISOL® (0.2M), saturated solubility
# [17] = CAPTISOL® (0.3M), saturated solubility
# [18] = H2O, saturated solubility, share of total normalized peak area
# [19] = MeOH standard (0.1 mg/ml), reference, share of total normalized peak area
Compound,AUC(0-2 h) ([3]; po),"solubility [5, 10]","solubility [5, 11]","solubility [5, 12]","solubility [5, 13]","Percentages of flavonolignan components of silymarin in the sample [5, 14]","Percentages of flavonolignan components of silymarin in the sample [5, 15]","Percentages of flavonolignan components of silymarin in the sample [5, 16]","Percentages of flavonolignan components of silymarin in the sample [5, 17]","Percentages of flavonolignan components of silymarin in the sample [5, 18]","Percentages of flavonolignan components of silymarin in the sample [5, 19]","solubility ([5]; water, H2O)",solubility [1],also measured
"COc1cc([C@H]2Oc3cc([C@H]4Oc5cc(O)cc(O)c5C(=O)[C@H]4O)ccc3O[C@@H]2CO)ccc1O (relative stereo) [2,3-cis-silybin A]",,,,,,,,,,,,,,"Solubility (mg/ml) of components of silymarin [1, 6]: 2.21 mg/mL; Percentages of components of silymarin flavonolignan in the sample ([1]; CAPTISOL® (0.2M), saturated): 3.47%; Percentages of components of silymarin flavonolignan in the sample ([1]; H2O, saturated): 1.88%; Solubility (mg/ml) of components of silymarin ([1]; H2O, saturated): 0.01 mg/mL; Solubility (mg/ml) of components of silymarin ([1]; MeOH standard (0.5 mg/ml silymarin, dissolved reference, not saturated)): 0.01 mg/mL; Percentages of components of silymarin flavonolignan in the sample [1, 7]: 1.54%; Solubility (mg/ml) of components of silymarin [1, 8]: 0.12 mg/mL; Percentages of components of silymarin flavonolignan in the sample [1, 9]: 1.56%"
"COc1cc([C@@H]2Oc3cc([C@H]4Oc5cc(O)cc(O)c5C(=O)[C@H]4O)ccc3O[C@H]2CO)ccc1O (relative stereo) [2,3-cis-silybin B]",,,,,,,,,,,,,,"Solubility (mg/ml) of components of silymarin [1, 6]: 1.20 mg/mL; Percentages of components of silymarin flavonolignan in the sample ([1]; CAPTISOL® (0.2M), saturated): 1.89%; Percentages of components of silymarin flavonolignan in the sample ([1]; H2O, saturated): 0.75%; Solubility (mg/ml) of components of silymarin ([1]; H2O, saturated): 0.01 mg/mL; Percentages of components of silymarin flavonolignan in the sample [1, 7]: 0.99%; Solubility (mg/ml) of components of silymarin [1, 8]: 0.06 mg/mL; Percentages of components of silymarin flavonolignan in the sample [1, 9]: 0.74%"
COc1cc([C@@H]2Oc3ccc([C@H]4Oc5cc(O)cc(O)c5C(=O)[C@@H]4O)cc3O[C@H]2CO)ccc1O [Isosilybin B],433 ng·h/mL,,,,,,,,,,,,,Solubility in water [2]: 6.36 µg/mL; AUC(0-2 h) ([3]; iv): 1417 ng·h/mL; Cmax ([3]; iv): 1308 ng/mL; Tmax ([3]; iv): 7.2 min; % Fabs of silymarin-CAPTISOL® complex compared with silymarin alone ([3]; po): higher % Fabs; AUC of Silymarin-CAPTISOL® complex compared with the control sample ([3]; po): higher AUC; Cmax of Silymarin-CAPTISOL® complex compared with the control sample ([3]; po): higher Cmax; Tmax ([3]; po): 30 min; Log D (7.4 pH) [4]: 2.53
COc1cc([C@H]2Oc3cc([C@H]4Oc5cc(O)cc(O)c5C(=O)[C@@H]4O)ccc3O[C@@H]2CO)ccc1O [Silybin A],271 ng·h/mL,2230 µg/mL,3800 µg/mL,6370 µg/mL,7330 µg/mL,9.55%,9.86%,9.64%,10.22%,3.15%,25.35%,20 µg/mL,30 µg/mL,"Percentages of flavonolignan components of silymarin in the sample ([5]; H2O, saturated solubility, share of total normalized peak area, listed as silybin A): about 3.15%; solubility [2]: 7.71 µg/mL; AUC(0-t) ([3]; iv): 3440 ng·h/mL; Cmax ([3]; iv, Cmax (ng/mL)): 7910 ng/mL; Tmax ([3]; iv, Tmax (h)): 7.2 min; % Fabs of silymarin-CAPTISOL® complex compared with silymarin alone ([3]; po): higher % Fabs; AUC of Silymarin-CAPTISOL® complex compared with the control sample ([3]; po): higher AUC; Cmax of Silymarin-CAPTISOL® complex compared with the control sample ([3]; po): higher Cmax; Tmax ([3]; po, Tmax (h)): 30 min; logD at 16 h [4]: 2.26"
COc1cc([C@@H]2Oc3cc([C@H]4Oc5cc(O)cc(O)c5C(=O)[C@@H]4O)ccc3O[C@H]2CO)ccc1O [Silybin B],395 ng·h/mL,5590 µg/mL,8930 µg/mL,13800 µg/mL,15800 µg/mL,24.01%,23.18%,20.90%,21.96%,7.72%,32.00%,50 µg/mL,30 µg/mL,"Percentages of flavonolignan components of silymarin in the sample ([5]; H2O, saturated solubility, share of total normalized peak area, listed as silybin B): about 7.72%; solubility [2]: 21.9 µg/mL; AUC(0-t) ([3]; iv): 5070 ng·h/mL; Cmax ([3]; iv, Cmax (ng/mL)): 12700 ng/mL; Tmax ([3]; iv, Tmax (h)): 7.2 min; Tmax ([3]; po): 37.8 min; Tmax ([3]; po, Tmax (h)): 30 min; logD at 16 h [4]: 1.99"
COc1cc([C@@H]2Oc3c(O)cc([C@H]4Oc5cc(O)cc(O)c5C(=O)[C@@H]4O)cc3[C@H]2CO)ccc1O [Silychristin A],,9570 µg/mL,15300 µg/mL,25500 µg/mL,26900 µg/mL,41.07%,39.70%,38.52%,37.52%,,22.28%,460 µg/mL,440 µg/mL,
COc1cc([C@H]2Oc3c(O)cc([C@H]4Oc5cc(O)cc(O)c5C(=O)[C@@H]4O)cc3[C@@H]2CO)ccc1O [Silychristin B],,930 µg/mL,1150 µg/mL,2320 µg/mL,2500 µg/mL,3.98%,2.99%,3.51%,3.48%,5.21%,1.50%,40 µg/mL,60 µg/mL,
COc1cc([C@@H]2Oc3c(O)cc([C@H]4Oc5cc(O)cc(O)c5C(=O)[C@@H]4O)cc3[C@H]2CO)ccc1O [Silychristin],,,,,,,,,,,,,,Solubility in water [2]: 170 µg/mL; Log D (7.4 pH) [4]: 0.53
